From patent US12630498B2 (Genzyme Corporation, priority 2019, dated 2026)

Experiments:
[1] = target: T1, human Cystic Fibrosis Transmembrane Conductance Regulator (CFTR) harboring the ΔF508 mutation (Homo sapiens, UniProt P13569, DEL508-508); experiment: H441 cell ΔF508-CFTR-HRP cell surface assay (Emax and EC50); type: cell-based; details: for Emax: NCI-H441, NA = Not active
T1 construct: expressed in transfected cells; host or cells: H441 carcinoma line (G418-selected)
How it was run: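 H441 and 41o- bronchial epithelial cells expressing ΔF508-CFTR with an extracellular-loop-4 HRP tag were treated with a 15-point compound series (24.5–0.001 μM) for two nights, H441 at 27° C, 41o- at 37° C with 0.0005 mg/ml doxycycline. Surface HRP luminescence read; % of maximum VX809 signal and EC50 derived.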

[2] = target: T2, CFTR-mediated transepithelial chloride transport in primary human bronchial epithelial cells from a ΔF508 homozygous CF donor (Homo sapiens, UniProt P13569, DEL508-508); experiment: TECC24 recording of CFTR-mediated transepithelial chloride transport in CF-HBE cells (AUC fold over DMSO); type: cell-based; details: test agent 10 μM, 48 hours incubation, AUC of forskolin-stimulated IEQ relative to DMSO
T2 construct: Primary human bronchial epithelial cells from a ΔF508 homozygous CF donor; host or cells: primary CF-HBE cells, ΔF508 homozygous donor
T2 sequence (P13569 with tags, fused parts or gaps DEL508-508): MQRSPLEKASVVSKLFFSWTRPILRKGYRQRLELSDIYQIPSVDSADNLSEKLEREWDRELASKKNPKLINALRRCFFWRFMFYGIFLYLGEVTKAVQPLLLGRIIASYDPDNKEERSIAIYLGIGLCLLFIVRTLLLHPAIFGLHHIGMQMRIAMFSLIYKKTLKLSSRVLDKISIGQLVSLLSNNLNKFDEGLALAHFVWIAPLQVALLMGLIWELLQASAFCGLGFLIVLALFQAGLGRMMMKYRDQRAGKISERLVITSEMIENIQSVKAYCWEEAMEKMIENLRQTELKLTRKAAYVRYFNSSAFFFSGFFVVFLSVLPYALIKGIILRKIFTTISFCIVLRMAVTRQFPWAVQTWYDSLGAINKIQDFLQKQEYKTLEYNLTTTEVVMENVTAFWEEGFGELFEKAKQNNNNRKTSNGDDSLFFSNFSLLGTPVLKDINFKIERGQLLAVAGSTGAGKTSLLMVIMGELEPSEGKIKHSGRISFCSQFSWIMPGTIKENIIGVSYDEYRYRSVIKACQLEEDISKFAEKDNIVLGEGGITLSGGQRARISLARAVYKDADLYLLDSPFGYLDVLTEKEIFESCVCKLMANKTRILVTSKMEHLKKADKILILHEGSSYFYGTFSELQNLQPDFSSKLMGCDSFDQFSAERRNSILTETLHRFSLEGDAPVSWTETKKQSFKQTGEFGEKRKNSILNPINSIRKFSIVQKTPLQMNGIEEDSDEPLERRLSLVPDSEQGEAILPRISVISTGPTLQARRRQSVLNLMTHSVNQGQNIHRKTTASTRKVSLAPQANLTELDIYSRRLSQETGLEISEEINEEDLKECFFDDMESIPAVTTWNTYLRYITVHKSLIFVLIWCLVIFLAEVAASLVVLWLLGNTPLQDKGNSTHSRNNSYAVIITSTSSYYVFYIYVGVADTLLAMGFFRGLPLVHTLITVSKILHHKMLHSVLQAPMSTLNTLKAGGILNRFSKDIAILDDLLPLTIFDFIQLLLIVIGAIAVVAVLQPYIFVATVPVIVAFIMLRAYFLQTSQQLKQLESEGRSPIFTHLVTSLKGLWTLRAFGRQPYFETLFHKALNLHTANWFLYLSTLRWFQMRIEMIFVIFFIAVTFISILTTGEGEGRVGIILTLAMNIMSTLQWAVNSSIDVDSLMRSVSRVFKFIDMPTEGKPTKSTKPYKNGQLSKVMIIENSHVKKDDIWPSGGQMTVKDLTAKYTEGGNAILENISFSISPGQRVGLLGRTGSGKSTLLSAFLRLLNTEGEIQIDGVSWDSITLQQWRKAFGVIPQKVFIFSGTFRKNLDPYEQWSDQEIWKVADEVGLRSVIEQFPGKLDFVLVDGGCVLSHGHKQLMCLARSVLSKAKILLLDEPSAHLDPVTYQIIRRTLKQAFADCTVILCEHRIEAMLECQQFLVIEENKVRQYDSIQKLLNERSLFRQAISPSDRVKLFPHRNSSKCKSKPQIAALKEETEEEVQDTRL
How it was run: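 Equivalent Cl⁻ current was derived from transepithelial voltage and resistance, and its AUC from forskolin (10 μM) to CFTRinh-172 (20 μM) was divided by the DMSO AUC. Benzamil 10 μM blocked ENaC. Cells were ΔF508-homozygous primary bronchial epithelia pretreated 48 h at 36.5 °C in IL-13 medium.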

T1 sequence (P13569 with tags, fused parts or gaps DEL508-508): as above

COC(C)(C)[C@H](NC(=O)c1ccc2ccccc2c1OCc1ccc(C(F)(F)F)cc1)C(=O)O [Example 139, (S)-3-methoxy-3-methyl-2-(1-((4-(trifluoromethyl)benzyl)oxy)-2-naphthamido)butanoic Acid]
EC50 [1]: 1400 nM | Emax [1]: 118% | TECC24 AUC fold over DMSO @10 μM [2]: C (“C” refers to AUC @10 uM <4)

CC(C)(C)[C@H](NC(=O)c1ccc2ccccc2c1OCc1nc2ccccc2s1)C(=O)O [Example 58, (S)-2-(1-(benzo[d]thiazol-2-ylmethoxy)-2-naphthamido)-3,3-dimethylbutanoic Acid]
EC50 [1]: 2800 nM | Emax [1]: 139% | TECC24 AUC fold over DMSO @10 μM [2]: C (“C” refers to AUC @10 uM <4)

Cc1cc(F)c2ccc(C(=O)N[C@H](C(=O)O)C(C)(C)C)c(OCc3ccc(C(F)(F)F)cc3)c2c1 [Example 263, (2S)-2-[[5-fluoro-7-methyl-1-[[4-(trifluoromethyl)phenyl]methoxy]naphthalene-2-carbonyl]amino]-3,3-dimethyl-butanoic Acid]
EC50 [1]: 100 nM | Emax [1]: 250% | TECC24 AUC fold over DMSO @10 μM [2]: A (“A” refers to AUC @10 uM >6)
